Consider 3 compounds from patent US6608085B1, “4-quinolinemethanol derivatives as purine receptor antagonists (II)” (Vernalis Research Limited, priority 1998, dated 2003).

For data set [1], the system named is haloperidol-induced deficits in locomotor activity in mice. The experiment in a line: Haloperidol-induced hypolocomotion model. To be noted: 10 mg/kg intraperitoneally, haloperidol 0.2 mg/kg. It counts as in vivo. The text has this:
This approach is also considered a valid method for screening drugs with potential antiparkinsonian effects. Thus, the ability of novel adenosine antagonists to block haloperidol-induced deficits in locomotor activity in mice can be used to assess both in vivo and potential antiparkinsonian efficacy.
Female TO mice (25-30 g) obtained from TUCK, UK, are used for all experiments. Animals are housed in groups of 8 [cage size—40 (width)×40 (length)×20 (height)cm] under 12 hr light/dark cycle (lights on 08:00 hr), in a temperature (20±2° C.) and humidity (55±15%) controlled environment. Animals have free access to food and water, and are allowed at least 7 days to acclimatize after delivery before experimental use.
Liquid injectable haloperidol (1 ml Serenance ampoules from Baker Norton, Harlow, Essex, each containing haloperidol BP 5 mg, batch #P424) are diluted to a final concentration of 0.02 mg/ml using saline. Novel test compounds are typically prepared as aqueous suspensions in 8% Tween. All compounds are administered intraperitoneally in a volume of 10 ml/kg.
1.5 hours before testing, mice are administered 0.2 mg/kg haloperidol, a dose that reduces baseline locomotor activity by at least 50%. […] Horizontal locomotor activity is determined by placing the cages within a frame containing a 3×6 array of photocells linked to a computer, which tabulates beam breaks. […]

The test system of another data set is Parkinsonian patients. To be noted: cited from earlier work.
The subject of another data set is cataleptic responses. The note with it: cited from earlier work.

`O[C@@H](c1cc(C(F)(F)F)nc2ccccc12)[C@H]1CCCCN1` (relative stereo) [Example 39, (11S*, 2′R*)-α-(2-Piperidinyl)-2-trifluoromethyl-4-quinolinemethanol (Racemic)]: the “reversal of haloperidol-induced hypolocomotion” value in data set [1] is “significantly reversed”.

Regarding `Cn1c(=O)c2[nH]cnc2n(C)c1=O` [Theophylline, 1,3-dimethylxanthine], the “mean objective disability scores” value in the data set with Parkinsonian patients (15 Parkinsonian patients, up to 12 weeks, 150 mg/day) is listed as “significant improvements”. For the same compound, the “patients reporting moderate or marked subjective improvement” value in the data set with Parkinsonian patients (of 15 Parkinsonian patients, up to 12 weeks, 150 mg/day) is on record as 11. For the same compound, the serum theophylline levels with Parkinsonian patients (slow release oral preparation 150 mg/day, after one week) is given as 4.44 mg/L.

In the case of `CCCn1c(=O)c2c(nc(/C=C/c3ccc(OC)c(OC)c3)n2C)n(CCC)c1=O` [KF 17837, (E)-8-(3,4-dimethoxystyryl)-1,3-dipropyl-7-methylxanthine], in the data set on cataleptic responses (in vivo), the “anticataleptic effects of a subthreshold dose of L-DOPA plus benserazide” value is given as “potentiated”; the “catalepsy induced by haloperidol and reserpine” value is listed as “reduced”. Also, the “cataleptic responses induced by intracerebroventricular CGS 21680” value with cataleptic responses (oral administration) is given as “significantly ameliorated”.
